Results published in patent US5137811A, “Method for diagnosing periodontal diseases with a substrate specific for aminopeptidase activity of periodontopathic bacteria” (Sunstar Kabushiki Kaisha, priority 1986, dated 1992).
*1 amine or outer side, *2 acyl side, *3 side chain or, on linkers, in order; H or OH if unused. Where a SMILES comes first, the peptide text is derived from it. The star is where a group is joined. Suc = O=C(CCC(=O)[*:2])[*:1]; βNA = c1ccc2cc(N*)ccc2c1; Cbz = O=C(OCc1ccccc1)*; Bz = O=C(c1ccccc1)*

Tests used:
Test in all cases: Hydrolytic activity of cell suspension on aminopeptidase substrates (Experiment 2)
Assay type in all cases: cell-based
[1] = tested on: Actinobacillus actinomycetemcomitans; conditions: four strains, Table 2
Description: (§1) The strains of Treponema were anaerobically cultivated using TYGVS media at 37° C. for 7 days, while other bacterial strains were cultivated using brain heart infusion broth at 37° C. for 48 to 72 hours. Each culture was diluted to obtain a bacterial cell suspension, the absorption at 660 nm of which was 1.0.
(§2) Substrate compounds for aminopeptidase enzyme having various color developing groups derived from β-naphthylamine were dissolved in 0.1M Tris-HCl buffer (pH 7.0) at the concentration of 0.2 mM to obtain substrate solutions.
(§3) To the substrate solution (1.5 ml) was added the above cell suspension (0.3 ml) and reacted at 37° C. for 60 minutes. After completion of the reaction, a coloring reagent [prepared by dissolving diazonium salt of Garnet GBC in 1M acetate buffer (containing 10% Tween 20, pH: 4.2) at the concentration of 0.5 mg/ml] was added and, after 15 minutes, the absorption at 525 nm was determined with a spectrophotometer.
(§4) On the basis of the average amount of released β-naphthylamine in each strain, the hydrolytic activity was expressed as follows: […]
(§5) According to the same manner as described in Experiment 1, periodontopathic bacteria specific aminopeptidase activity was tested by using four strains of Treponema denticola, five strains of B. gingivalis, three strains of B. intermedius, two strains of B. melaninogenicus, two strains of Actinomyces israelli, four strains of Actinobacillus actinomycetemcomitans and three strains of Fusobacterium nucleatum. Abbreviations used in Table 2 mean the following substrate compounds.

B. denticola = conditions: Table 2
Description: as §1, §2, §3, §4, §5

B. melaninogenicus = conditions: two strains, Table 2
Description: as §1, §2, §3, §4, §5

Fusobacterium nucleatum = conditions: three strains, Table 2
Description: as §1, §2, §3, §4, §5

Actinomyces israelli = conditions: two strains, Table 2
Description: as §1, §2, §3, §4, §5

Treponema denticola = conditions: four strains, Table 2
Description: as §1, §2, §3, §4, §5

B. gingivalis = conditions: five strains, Table 2
Description: as §1, §2, §3, §4, §5

B. intermedius = conditions: three strains, Table 2
Description: as §1, §2, §3, §4, §5

B. corporis = conditions: Table 2
Description: as §1, §2, §3, §4, §5

| Structure (SMILES) | hydrolytic activity (average amount of released β-naphthylamine) [1] | hydrolytic activity (average amount of released β-naphthylamine) (B. denticola) | hydrolytic activity (average amount of released β-naphthylamine) (B. melaninogenicus) | hydrolytic activity (average amount of released β-naphthylamine) (Fusobacterium nucleatum) | hydrolytic activity (average amount of released β-naphthylamine) (Actinomyces israelli) | hydrolytic activity (average amount of released β-naphthylamine) (Treponema denticola) | hydrolytic activity (average amount of released β-naphthylamine) (B. gingivalis) | hydrolytic activity (average amount of released β-naphthylamine) (B. intermedius) | hydrolytic activity (average amount of released β-naphthylamine) (B. corporis) |
| --- | --- | --- | --- | --- | --- | --- | --- | --- | --- |
| O=C(CNC(=O)c1ccccc1)N[C@@H](Cc1ccccc1)C(=O)N1CCC[C@H]1C(=O)Nc1ccc2ccccc2c1 [BzGFP, N-benzoyl-glycyl-phenylalanyl-proline-β-naphthylamide] (Bz-Gly-Phe-Pro-βNA) | - (release amount<5 nmol/ml) | ++ (20 ≤release amount<40 nmol/ml) | ++ (20 ≤release amount<40 nmol/ml) | - (release amount<5 nmol/ml) | - (release amount<5 nmol/ml) | +++ (release amount≥40 nmol/ml) | ++ (20 ≤release amount<40 nmol/ml) | +++ (release amount≥40 nmol/ml) | ++ (20 ≤release amount<40 nmol/ml) |
| O=C(NCC(=O)N1CCC[C@H]1C(=O)Nc1ccc2ccccc2c1)c1ccccc1 [BzGP, N-benzoyl-glycyl-proline-β-naphthylamide] (Bz-Gly-Pro-βNA) | - (release amount<5 nmol/ml) | ++ (20 ≤release amount<40 nmol/ml) | ++ (20 ≤release amount<40 nmol/ml) | - (release amount<5 nmol/ml) | - (release amount<5 nmol/ml) | ++ (20 ≤release amount<40 nmol/ml) | ++ (20 ≤release amount<40 nmol/ml) | +++ (release amount≥40 nmol/ml) | ++ (20 ≤release amount<40 nmol/ml) |
| CC(C)[C@H](NC(=O)OCc1ccccc1)C(=O)N[C@@H](CCCCN)C(=O)N1CCC[C@H]1C(=O)Nc1ccc2ccccc2c1 [CxVKP, N-carbobenzoxy-valyl-lysyl-proline-β-naphthylamide] (Cbz-Val-Lys-Pro-βNA) | - (release amount<5 nmol/ml) | ++ (20 ≤release amount<40 nmol/ml) | ++ (20 ≤release amount<40 nmol/ml) | - (release amount<5 nmol/ml) | - (release amount<5 nmol/ml) | ++ (20 ≤release amount<40 nmol/ml) | ++ (20 ≤release amount<40 nmol/ml) | ++ (20 ≤release amount<40 nmol/ml) | ++ (20 ≤release amount<40 nmol/ml) |
| N[C@@H](Cc1ccccc1)C(=O)N1CCC[C@H]1C(=O)Nc1ccc2ccccc2c1 [FP, phenylalanyl-proline-β-naphthylamide] (H-Phe-Pro-βNA) | - (release amount<5 nmol/ml) | + (10 ≤release amount<20 nmol/ml) | + (10 ≤release amount<20 nmol/ml) | - (release amount<5 nmol/ml) | - (release amount<5 nmol/ml) | ++ (20 ≤release amount<40 nmol/ml) | ++ (20 ≤release amount<40 nmol/ml) | + (10 ≤release amount<20 nmol/ml) | + (10 ≤release amount<20 nmol/ml) |
| CC(C)C[C@H](N)C(=O)NCC(=O)Nc1ccc2ccccc2c1 [LG, leucyl-glycine-β-naphthylamide, reference compound] (H-Leu-Gly-βNA) | - (release amount<5 nmol/ml) | ++ (20 ≤release amount<40 nmol/ml) | +++ (release amount≥40 nmol/ml) | - (release amount<5 nmol/ml) | - (release amount<5 nmol/ml) | - (release amount<5 nmol/ml) | + (10 ≤release amount<20 nmol/ml) | - (release amount<5 nmol/ml) | ++ (20 ≤release amount<40 nmol/ml) |
| O=C(Nc1ccc2ccccc2c1)[C@@H]1CCCN1 [P, proline-β-naphthylamide, reference compound] | - (release amount<5 nmol/ml) | - (release amount<5 nmol/ml) | - (release amount<5 nmol/ml) | - (release amount<5 nmol/ml) | - (release amount<5 nmol/ml) | + (10 ≤release amount<20 nmol/ml) | - (release amount<5 nmol/ml) | - (release amount<5 nmol/ml) | - (release amount<5 nmol/ml) |
| N[C@@H](CO)C(=O)N[C@@H](Cc1ccc(O)cc1)C(=O)Nc1ccc2ccccc2c1 [SY, seryl-tyrosine-β-naphthylamide, reference compound] (H-Ser-Tyr-βNA) | - (release amount<5 nmol/ml) | ± (5 ≤release amount<10 nmol/ml) | ± (5 ≤release amount<10 nmol/ml) | - (release amount<5 nmol/ml) | - (release amount<5 nmol/ml) | - (release amount<5 nmol/ml) | ++ (20 ≤release amount<40 nmol/ml) | - (release amount<5 nmol/ml) | ± (5 ≤release amount<10 nmol/ml) |
| CC(C)C[C@H](NC(=O)[C@@H]1CCCN1C(=O)CNC(=O)CCC(=O)O)C(=O)NCC(=O)N1CCC[C@H]1C(=O)Nc1ccc2ccccc2c1 [ScGPLGP, N-succinyl-glycyl-prolyl-leucyl-glycyl-proline-β-naphthylamide] (Suc-GPLGP-βNA) | - (release amount<5 nmol/ml) | ± (5 ≤release amount<10 nmol/ml) | ± (5 ≤release amount<10 nmol/ml) | - (release amount<5 nmol/ml) | - (release amount<5 nmol/ml) | + (10 ≤release amount<20 nmol/ml) | ± (5 ≤release amount<10 nmol/ml) | + (10 ≤release amount<20 nmol/ml) | ± (5 ≤release amount<10 nmol/ml) |
| CC(C)[C@H](N)C(=O)N[C@@H](C)C(=O)Nc1ccc2ccccc2c1 [VA, valyl-alanine-β-naphthylamide, reference compound] (H-Val-Ala-βNA) | - (release amount<5 nmol/ml) | ± (5 ≤release amount<10 nmol/ml) | ± (5 ≤release amount<10 nmol/ml) | - (release amount<5 nmol/ml) | - (release amount<5 nmol/ml) | - (release amount<5 nmol/ml) | ++ (20 ≤release amount<40 nmol/ml) | - (release amount<5 nmol/ml) | ± (5 ≤release amount<10 nmol/ml) |
